The test deals with T1, hERG (Kv11.1 potassium channel) (Homo sapiens, UniProt Q12809).
T1 construct: gene KCNH2
Put plainly: automated patch clamp, multi-site, Bayesian hierarchical model. A general note: In patch-clamp work, channel activity is measured electrically.

T1 sequence (Q12809 whole entry): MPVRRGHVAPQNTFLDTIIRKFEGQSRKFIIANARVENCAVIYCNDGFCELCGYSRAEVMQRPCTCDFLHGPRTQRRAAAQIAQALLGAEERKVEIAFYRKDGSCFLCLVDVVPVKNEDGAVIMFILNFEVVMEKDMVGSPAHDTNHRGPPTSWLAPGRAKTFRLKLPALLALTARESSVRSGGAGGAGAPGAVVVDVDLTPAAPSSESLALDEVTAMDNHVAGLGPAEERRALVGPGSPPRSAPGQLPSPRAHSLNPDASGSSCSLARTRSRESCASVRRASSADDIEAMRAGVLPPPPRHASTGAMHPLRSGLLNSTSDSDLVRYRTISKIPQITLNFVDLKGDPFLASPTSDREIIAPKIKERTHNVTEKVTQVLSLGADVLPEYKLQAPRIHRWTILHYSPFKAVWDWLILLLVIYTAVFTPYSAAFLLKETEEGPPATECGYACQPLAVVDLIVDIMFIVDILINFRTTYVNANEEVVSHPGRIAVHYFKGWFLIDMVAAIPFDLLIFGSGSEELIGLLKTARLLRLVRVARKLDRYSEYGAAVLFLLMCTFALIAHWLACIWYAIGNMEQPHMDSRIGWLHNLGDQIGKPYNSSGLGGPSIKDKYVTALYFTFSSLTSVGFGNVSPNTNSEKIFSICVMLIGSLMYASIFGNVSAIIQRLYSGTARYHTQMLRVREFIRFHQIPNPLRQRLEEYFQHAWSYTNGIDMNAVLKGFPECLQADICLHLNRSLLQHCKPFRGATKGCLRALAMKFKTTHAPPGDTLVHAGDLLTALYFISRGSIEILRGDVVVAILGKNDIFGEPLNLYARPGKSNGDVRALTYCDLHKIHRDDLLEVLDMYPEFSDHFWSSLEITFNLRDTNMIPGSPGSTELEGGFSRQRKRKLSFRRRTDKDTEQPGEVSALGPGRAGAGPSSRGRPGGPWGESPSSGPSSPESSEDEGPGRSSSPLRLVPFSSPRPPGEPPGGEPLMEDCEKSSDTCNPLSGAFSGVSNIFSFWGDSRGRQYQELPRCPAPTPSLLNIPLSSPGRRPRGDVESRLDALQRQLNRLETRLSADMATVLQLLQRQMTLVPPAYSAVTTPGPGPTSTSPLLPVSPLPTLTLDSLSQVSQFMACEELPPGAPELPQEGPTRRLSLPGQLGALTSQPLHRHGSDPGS

With `CCOC(=O)C1=C(C)NC(C)=C(C(=O)OC)C1c1cccc([N+](=O)[O-])c1` (stereo not shown) [nitrendipine], the half-maximal inhibitory concentration (IC50) (commonly the concentration at which inhibition is half-maximal) was 20 µM. That is a double-digit micromolar value.

Source of the values: paper PMC7166077, “A systematic strategy for estimating hERG block potency and its implications in a new cardiac safety paradigm” (Toxicology and Applied Pharmacology, 2020).
